Results reported in article PMC12298827, “Subchronic Toxicities of Four Per- and Polyfluoroalkyl Substances (PFASs) by Oral Exposure in Sprague–Dawley Rats” (Toxics, 2025).

System: male and female Sprague–Dawley rats
Test: 90-day subchronic oral gavage toxicity study
Format: in vivo, rat
Conditions: female
Description: Subchronic (90-day) studies were performed in accordance with current U.S. EPA’s Toxic Substances Control Act Good Laboratory Practice (GLP) Standards, with the following two general exceptions to the GLP guidelines: Analysis of the dose formulations was conducted according to RTI-approved Standard Operating Procedures, and corn oil (the vehicle) was not characterized (certificate of analysis from the vendor is available in the appendices to the final reports). Male and female Sprague–Dawley rats (five dose levels plus a control, n = 10/sex/dose group, corn oil vehicle dose volume of 3 mL/kg; oral gavage) were used in these studies, and the rats were euthanized on SD 91. The dose levels for PFHI were 0, 12.5, 25, 50, 100, and 200 mg/kg-day. The dose levels for MHFPK were 0, 18.8, 37.5, 75, 150, and 300 mg/kg-day. The dose levels for PFNAC were 0, 0.1, 0.3, 1.0, 3.0, and 10 mg/kg-day for male rats and 0, 0.3, 1.0, 3.0, 10, and 30 mg/kg-day for female rats. For CTFPA, the dose levels were 0, 1.9, 3.8. 7.5, 15, and 30 mg/kg-day for male rats and 0, 6.3, 12.5, 25, 50, and 100 mg/kg-day for female rats. For each PFAS, three batches of dosing solution were prepared. The time between the batch preparation of the dosing solutions ranged between 29 and 39 days. Blood samples were collected from all the rats at termination for serum chemistry, hematology, coagulation, and the analysis of the parent PFAS chemical in the plasma. In vivo data collection and further detail on the endpoints examined postmortem are described below.
The rats were observed twice daily for morbidity and mortality throughout the study period. At least once prior to randomization to test groups and weekly thereafter, the rats were physically examined, and bodyweights were obtained. Feed consumption was quantified weekly starting on SD 1.
Neurotoxicity was evaluated using the functional observational battery (FOB) and measuring locomotor activity (LMA) 2–4 h post dosing on SDs 78–80 and 80–84, respectively. For both the 14- and 90-day studies, an ophthalmologic examination was conducted prior to randomization and near the end of the study, using indirect ophthalmoscopy and slit–lamp biomicroscopy (as needed) after the administration of a mydriatic solution.
Hematology, biochemistry, and coagulation endpoints were measured at the termination of the study. A Siemens Advia 2120i hematology analyzer (Siemens Healthineers, Erlangen, Germany) was used to measure (or calculate) the parameters related to the complete blood count, leukocyte differential count, and reticulocyte count. The hematology parameters are listed and described in Table 2. The prothrombin time […] and activated partial thromboplastin time (APTT) were measured using an Instrumentation Laboratory (Bedford, MA, USA) ACL Elite Pro coagulation analyzer (laser–nephelometric centrifugal method).
At necropsy, the rats were visually examined for external abnormalities and organ weights (absolute and relative to the BW and brain weight), which were recorded (paired organs weighed together). The tissues were preserved in 10% neutral buffered formalin (NBF), except for the ocular tissues, testes, and epididymides, which were preserved in modified Davidson’s fixative and later transferred to 10% NBF. Bone marrow smears were prepared from the femurs, and the slides were air-dried, fixed in methanol, stained, and stored at room temperature for possible future evaluation. The preserved tissues were embedded in paraffin, sectioned, stained with hematoxylin and eosin, and examined by a board-certified veterinary pathologist.
Statistical analysis was performed using Provantis™ Version 10 or greater (Instem LSS, Limited; Stone, Staffordshire, UK). Differences among the treatment groups compared to the control were evaluated using one-way analysis of variance (ANOVA) if the underlying assumptions of a normal distribution (Shapiro–Wilk test) and the homogeneity of the variance (Levene’s test) were satisfied. […]

For C=CC(=O)OCC(F)(F)C(F)(F)C(F)(F)C(F)(F)C(F)(F)C(F)(F)C(F)(F)C(F)F [PFNAC, 1H,1H,9H-Perfluorononyl acrylate], the “Kidney Weight” value (1.0 mg/kg-day) was 1.73 g, the “Kidney/Body Weight” value (1.0 mg/kg-day) was 0.59% and the “Kidney/Brain Weight” value (1.0 mg/kg-day) was 90.7%. The “Liver Weight” value (1.0 mg/kg-day) was 7.89 g, the “Liver/Body Weight” value (1.0 mg/kg-day) was 2.67% and the “Liver/Brain Weight” value (1.0 mg/kg-day) was 412%. For the same compound, the MPV (1.0 mg/kg-day) was 7.59 ± 0.74 fL, the PT (1.0 mg/kg-day) was 14.03 s and the RBC (1.0 mg/kg-day) was 7.303±0.562 M/µL. For the same compound, the “Total BW change” value (1.0 mg/kg-day) was 94.80 g, the “Total Food Consumed” value (1.0 mg/kg-day) was 1444 g and the “% BW Gain” value (3.0 mg/kg-day) was 47.09%. The “% Diff, % BW Gain” value (3.0 mg/kg-day) was -3.49%, the “% Diff, Total BW change” value (3.0 mg/kg-day) was -2.02% and the “% Diff, Total Food Consumed” value (3.0 mg/kg-day) was 7.48%. For the same compound, the A/G (3.0 mg/kg-day) was 1.15±0.06 ratio, the ABEOS (3.0 mg/kg-day) was 0.083±0.028 K/µL and the ABNEUT (3.0 mg/kg-day) was 1.419±0.734 K/µL. The ABRETi (3.0 mg/kg-day) was 176.48±43.69 10^9/L, the ALB (3.0 mg/kg-day) was 4.56 ± 0.18 g/dL and the ALPi (3.0 mg/kg-day) was 55.4±20.6 U/L. For the same compound, the APTT (3.0 mg/kg-day) was 20.34 s, the BUN (3.0 mg/kg-day) was 16.4 ± 1.3 mg/dL and the CHOL (3.0 mg/kg-day) was 92.3 ± 16.3 mg/dL. The GLOB (3.0 mg/kg-day) was 3.97 ± 0.13 g/dL, the GLUC (3.0 mg/kg-day) was 104.4 ± 8.0 mg/dL and the HCT (3.0 mg/kg-day) was 41.82±2.32%. For the same compound, the HGB (3.0 mg/kg-day) was 13.37 ± 0.68 g/dL, the “Kidney Weight” value (3.0 mg/kg-day) was 1.83 g and the “Kidney/Body Weight” value (3.0 mg/kg-day) was 0.61%. The “Kidney/Brain Weight” value (3.0 mg/kg-day) was 91.1%, the “Liver Weight” value (3.0 mg/kg-day) was 7.96 g and the “Liver/Body Weight” value (3.0 mg/kg-day) was 2.67%. For the same compound, the “Liver/Brain Weight” value (3.0 mg/kg-day) was 396%, the MPV (3.0 mg/kg-day) was 7.77 ± 0.42 fL and the PT (3.0 mg/kg-day) was 14.15 s. The RBC (3.0 mg/kg-day) was 7.262±0.327 M/µL, the “Total BW change” value (3.0 mg/kg-day) was 99.10 g and the “Total Food Consumed” value (3.0 mg/kg-day) was 1512 g. For the same compound, the “% BW Gain” value (10 mg/kg-day) was 46.00%, the “% Diff, % BW Gain” value (10 mg/kg-day) was -5.72% and the “% Diff, Total BW change” value (10 mg/kg-day) was -5.60%. For the same compound, the “% Diff, Total Food Consumed” value (10 mg/kg-day) was 5.11%, the A/G (10 mg/kg-day) was 1.17±0.07 ratio and the ABEOS (10 mg/kg-day) was 0.081±0.022 K/µL. The ABNEUT (10 mg/kg-day) was 1.562±1.084 K/µL, the ABRETi (10 mg/kg-day) was 160.88±34.97 10^9/L and the ALB (10 mg/kg-day) was 4.66 ± 0.39 g/dL. It also gave an ALPi (10 mg/kg-day) of 50.5±7.3 U/L, an APTT (10 mg/kg-day) of 22.50 s and a BUN (10 mg/kg-day) of 19.1 ± 3.5 mg/dL. For the same compound, the CHOL (10 mg/kg-day) was 77.7 ± 14.0 mg/dL, the GLOB (10 mg/kg-day) was 3.98 ± 0.29 g/dL and the GLUC (10 mg/kg-day) was 108.8 ± 12.0 mg/dL. For the same compound, the HCT (10 mg/kg-day) was 41.08±2.03%, the HGB (10 mg/kg-day) was 13.12 ± 0.63 g/dL and the “Kidney Weight” value (10 mg/kg-day) was 1.81 g. The “Kidney/Body Weight” value (10 mg/kg-day) was 0.62%, the “Kidney/Brain Weight” value (10 mg/kg-day) was 89.98% and the “Liver Weight” value (10 mg/kg-day) was 8.42 g. The “Liver/Body Weight” value (10 mg/kg-day) was 2.88%, the “Liver/Brain Weight” value (10 mg/kg-day) was 419% and the MPV (10 mg/kg-day) was 7.80 ± 0.60 fL. The PT (10 mg/kg-day) was 14.11 s, the RBC (10 mg/kg-day) was 7.241±0.358 M/µL and the “Total BW change” value (10 mg/kg-day) was 95.48 g. The “Total Food Consumed” value (10 mg/kg-day) was 1479 g, the “% BW Gain” value (30 mg/kg-day) was 52.06% and the “% Diff, % BW Gain” value (30 mg/kg-day) was 6.69%. For the same compound, the “% Diff, Total BW change” value (30 mg/kg-day) was 5.59%, the “% Diff, Total Food Consumed” value (30 mg/kg-day) was 8.40% and the ABEOS (30 mg/kg-day) was 0.082±0.026 K/µL. The ABNEUT (30 mg/kg-day) was 1.118±0.358 K/µL, the ABRETi (30 mg/kg-day) was 164.87±31.05 10^9/L and the APTT (30 mg/kg-day) was 22.09 s. The HCT (30 mg/kg-day) was 40.37±2.37%, the HGB (30 mg/kg-day) was 13.04 ± 0.72 g/dL and the “Kidney Weight” value (30 mg/kg-day) was 1.99 g. For the same compound, the “Kidney/Body Weight” value (30 mg/kg-day) was 0.65%, the “Kidney/Brain Weight” value (30 mg/kg-day) was 101% and the “Liver Weight” value (30 mg/kg-day) was 9.83 g.
